Measured values from patent publication US9988379B2, “GPR40 receptor agonist, methods of preparing the same, and pharmaceutical compositions containing the same as an active agent” (LG CHEM, LTD., priority 2012, dated 2018).
pEC50: −log10 of the molar value.

Molecular target: T1, human GPR40 (Homo sapiens, UniProt O14842)
T1 construct: expressed in transfected cells; host or cells: CHO-K1
Assay: Induction of Ca2+ (calcium flux assay) using human GPR40 expression cell line
Format: cell-based
Settings: read-out: EC0.5
Method: Evaluation of the Test Compounds for Induction of Ca^2+ Using Human GPR40 Expression Cell Line
The cell line expressing human GPR40 was generated by transfection of the GPR40 expression vector into CHO-K1 cell, and used in the following calcium flux assay.
The cell line was cultured in cell-culture medium (F-12 (Invitrogen) supplemented with 10% (v/v) FBS (Fetal Bovine Serum; Invitrogen), 0.5 mg/ml Geneticin (Invitrogen) and 1% (v/v) Antibiotic-Antimycotic solution (Invitrogen)) under the condition of 5% CO2 and 37° C. For calcium flux assay, the cells were diluted with the cell-culture medium to a concentration of 5×10^5 cells/ml, and the diluted cell suspension was dispensed in amount of 100 μl/well to a 96-well transparent bottom black polystyrene cell culture plate (Corning) and then cultured for 24 hours. The following concentrations of test compounds were added to these cells, and then the changes in intracellular calcium concentration were measured by FlexStation II384 (Molecular Devices). The following solution was prepared before the measurement.
First, a buffer solution for assay was prepared for use in the manufacture of fluorescent dye solution. This buffer solution was prepared by adding 1M HEPES solution (Invitrogen) to HBSS (Hanks' Balanced Salt Solution) (Invitrogen) and then adding 1M NaOH (Nacalai Tesque) to adjust pH to 7.4. Then the fluorescent dye solution was prepared according to the manufacturer's instruction attached to Calcium 5 Assay Kit (Molecular Devices), and the final DMSO concentration was adjusted to 2%.
The fluorescent dye solution was added in an amount of 100 μl/well to supernatant of the cell culture plate cultured for 24 hours. The plate was cultured for 1 hour under the condition of 5% CO2 and 37° C. so that the fluorescent dye was inserted into the cell.
Test compounds (i.e., the compounds prepared in the Examples) dissolved in dimethyl sulfoxide (DMSO ACROS) were diluted 200-fold in the buffer solution for assay to prepare compound solutions corresponding to the respective concentrations. […] 50 μl of the prepared sample solutions was added to each well of 96-well polypropylene plates (NUNC), and thereby a compound plate was prepared. Finally, the compound plate and the cell culture plate cultured for 1 hour with the fluorescent dye were placed in FlexStation II384.
After the above pre-treatment, the change in the intracellular calcium concentration when each concentration of the test compound solutions was added at 50 μl was measured by FlexStation II^384.
Then, the relative activity values depending on the concentration of the compound were plotted using Prism 4 software (GraphPad) to calculate the EC0.5 value.

T1 sequence (O14842 whole entry): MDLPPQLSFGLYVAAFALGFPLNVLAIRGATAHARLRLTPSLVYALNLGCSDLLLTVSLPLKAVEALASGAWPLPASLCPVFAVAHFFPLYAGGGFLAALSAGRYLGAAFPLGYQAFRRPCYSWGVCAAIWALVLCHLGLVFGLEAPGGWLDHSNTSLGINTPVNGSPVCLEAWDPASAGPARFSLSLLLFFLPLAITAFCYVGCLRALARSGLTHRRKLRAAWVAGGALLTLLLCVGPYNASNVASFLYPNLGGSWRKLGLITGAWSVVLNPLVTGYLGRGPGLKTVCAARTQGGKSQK

Compound	pEC50
CC#C[C@@H](CC(=O)O)c1ccc(OCc2ccc3ccn(Cc4ncccn4)c3c2C)cc1 [Example 64, (S)-3-[4-(7-methyl-1-pyrimidin-2-ylmethyl-1H-indol-6-ylmethoxy)-phenyl]-hex-4-ynoic acid]	6.30 to 7.30
CC#C[C@@H](CC(=O)O)c1ccc(OCc2ccc3cn(Cc4ccc(F)cc4)nc3c2)cc1 [Example 67, (S)-3-{4-[2-(4-fluoro-benzyl)-2H-indazol-6-ylmethoxy]-phenyl}-hex-4-ynoic acid]	7.15
CC#C[C@@H](CC(=O)O)c1ccc(OCc2ccc3cnn(Cc4ncccn4)c3c2)cc1 [Example 68, (S)-3-[4-(1-pyrimidin-2-ylmethyl-1H-indazol-6-ylmethoxy)-phenyl}-hex-4-ynoic acid]	6.30 to 7.30
CC#C[C@@H](CC(=O)O)c1ccc(OCc2ccc3cn(Cc4ncccn4)nc3c2)cc1 [Example 69, (S)-3-[4-(2-pyrimidin-2-ylmethyl-2H-indazol-6-ylmethoxy]-phenyl}-hex-4-ynoic acid]	≤ 6.30
CC#C[C@@H](CC(=O)O)c1ccc(OCc2ccc3cnn(Cc4cnccn4)c3c2)cc1 [Example 70, (S)-3-[4-(1-pyrazin-2-ylmethyl-1H-indazol-6-ylmethoxy]-phenyl}-hex-4-ynoic acid]	6.30 to 7.30
CC#C[C@@H](CC(=O)O)c1ccc(OCc2ccc3cnn(Cc4cnc(C)cn4)c3c2)cc1 [Example 73, (S)-3-{4-[1-(5-methyl-pyrazin-2-ylmethyl)-1H-indazol-6-ylmethoxy]-phenyl}-hex-4-ynoic acid]	6.30 to 7.30
CC#C[C@@H](CC(=O)O)c1ccc(OCc2ccc3cn(Cc4cnc(C)cn4)nc3c2)cc1 [Example 74, (S)-3-{4-[2-(5-methyl-pyrazin-2-ylmethyl)-2H-indazol-6-ylmethoxy]-phenyl}-hex-4-ynoic acid]	≤ 6.30
CC#C[C@@H](CC(=O)O)c1ccc(OCc2ccc3cnn(Cc4ccncn4)c3c2)cc1 [Example 75, (S)-3-[4-(1-pyrimidin-4-ylmethyl-1H-indazol-6-ylmethoxy)-phenyl]-hex-4-ynoic acid]	6.30 to 7.30
CC#C[C@@H](CC(=O)O)c1ccc(OCc2ccc3cn(Cc4ccncn4)nc3c2)cc1 [Example 76, (S)-3-[4-(2-pyrimidin-4-ylmethyl-2H-indazol-6-ylmethoxy]-phenyl}-hex-4-ynoic acid]	≤ 6.30
CC#C[C@@H](CC(=O)O)c1ccc(OCc2cccc3nn(Cc4cnc(C)cn4)cc23)cc1 [Example 78, (S)-3-{4-[2-(5-methyl-pyrazin-2-ylmethyl)-2H-indazol-4-ylmethoxy]-phenyl}-hex-4-ynoic acid]	6.30 to 7.30
CC#C[C@@H](CC(=O)O)c1ccc(OCc2ccc3cn(Cc4cccnc4)nc3c2)cc1 [Example 80, (S)-3-[4-(2-pyridin-3-ylmethyl-2H-indazol-6-ylmethoxy)-phenyl]-hex-4-ynoic acid]	≤ 6.30
CC#C[C@@H](CC(=O)O)c1ccc(OCc2ccc3cnn(Cc4cnn(C)c4)c3c2)cc1 [Example 82, (S)-3-{4-[1-(1-methyl-1H-pyrazol-4-ylmethyl)-1H-indazol-6-ylmethoxy]-phenyl}-hex-4-ynoic acid]	6.30 to 7.30
CC(C)Cn1cc2ccc(COc3ccc([C@H](CC(=O)O)c4ccon4)cc3)cc2n1 [Example 88, (S)-3-[4-(2-isobutyl-2H-indazol-6-ylmethoxy)-phenyl]-3-isoxazol-3-yl-propanoic acid]	6.40
CC#C[C@@H](CC(=O)O)c1ccc(OCc2ccc3cnn(Cc4ccc(C)nc4)c3c2)cc1 [Example 93, (S)-3-{4-[1-(6-methyl-pyridin-3-ylmethyl)-1H-indazol-6-ylmethoxy]-phenyl}-hex-4-ynoic acid]	6.30 to 7.30
O=C(O)C[C@@H](c1ccc(OCc2ccc3ccn(Cc4ccc(F)cc4)c3n2)cc1)c1ccon1 [Example 95, (S)-3-{4-[1-(4-fluoro-benzyl)-1H-pyrrolo[2,3-b]pyridin-6-ylmethoxy]-phenyl}-3-isoxazol-3-yl-propanoic acid]	7.00

More lines, now with the values ahead:

pEC50	Compound
7.30	O=C(O)CC(C1=NOCC1)c1ccc(OCc2ccc3cnn(Cc4ccccc4)c3c2)cc1 (centres unmarked) [Example 65, 3-[4-(1-benzyl-1H-indazol-6-ylmethoxy)-phenyl]-3-(4,5-dihydro-isoxazol-3-yl)-propanoic acid]
8.00	CC#C[C@@H](CC(=O)O)c1ccc(OCc2ccc3cnn(Cc4ccc(F)cc4)c3c2)cc1 [Example 66, (S)-3-{4-[1-(4-fluoro-benzyl)-1H-indazol-6-ylmethoxy]-phenyl}-hex-4-ynoic acid]
7.70	CC#C[C@@H](CC(=O)O)c1ccc(OCc2cccc3c2cnn3Cc2ccc(F)cc2)cc1 [Example 71, (S)-3-{4-[1-(4-fluoro-benzyl)-1H-indazol-4-ylmethoxy]-phenyl}-hex-4-ynoic acid]
7.52	CC#C[C@@H](CC(=O)O)c1ccc(OCc2cccc3nn(Cc4ccc(F)cc4)cc23)cc1 [Example 72, (S)-3-{4-[2-(4-fluoro-benzyl)-2H-indazol-4-ylmethoxy]-phenyl}-hex-4-ynoic acid]
7.30 to 9.00	CC#C[C@@H](CC(=O)O)c1ccc(OCc2ccc3cnn(Cc4cccnc4)c3c2)cc1 [Example 79, (S)-3-[4-(1-pyridin-3-ylmethyl-1H-indazol-6-ylmethoxy)-phenyl]-hex-4-ynoic acid]
7.30 to 9.00	CC#C[C@@H](CC(=O)O)c1ccc(OCc2ccc3ccn(Cc4ccc(C)nc4)c3c2C)cc1 [Example 81, (S)-3-{4-[7-methyl-1-(6-methyl-pyridin-3-ylmethyl)-1H-indol-6-ylmethoxy]-phenyl}-hex-4-ynoic acid]
8.00	Cc1c(COc2ccc([C@H](CC(=O)O)c3ccon3)cc2)ccc2ccn(Cc3ccccc3)c12 [Example 83, (S)-3-[4-(1-benzyl-7-methyl-1H-indol-6-ylmethoxy)-phenyl]-3-isoxazol-3-yl-propanoic acid]
7.30	Cc1c(COc2ccc([C@H](CC(=O)O)c3ccon3)cc2)ccc2ccn(Cc3ccc(F)cc3)c12 [Example 84, (S)-3-{4-[1-(4-fluoro-benzyl)-7-methyl-1H-indol-6-ylmethoxy]-phenyl}-3-isoxazol-3-yl-propanoic acid]
8.00	O=C(O)C[C@@H](c1ccc(OCc2ccc3cnn(Cc4ccccc4)c3c2)cc1)c1ccon1 [Example 85, (S)-3-[4-(1-benzyl-1H-indazol-6-ylmethoxy)-phenyl]-3-isoxazol-3-yl-propanoic acid]
8.00	O=C(O)C[C@@H](c1ccc(OCc2ccc3cnn(Cc4ccc(F)cc4)c3c2)cc1)c1ccon1 [Example 86, (S)-3-{4-[1-(4-fluoro-benzyl)-1H-indazol-6-ylmethoxy]-phenyl}-3-isoxazol-3-yl-propanoic acid]
8.00	CC(C)Cn1ncc2ccc(COc3ccc([C@H](CC(=O)O)c4ccon4)cc3)cc21 [Example 87, (S)-3-[4-(1-isobutyl-1H-indazol-6-ylmethoxy)-phenyl]-3-isoxazol-3-yl-propanoic acid]
7.52	Cc1c(COc2ccc([C@H](CC(=O)O)c3ccon3)cc2)ccc2ccn(Cc3cnccn3)c12 [Example 89, (S)-3-isoxazol-3-yl-3-[4-(7-methyl-1-pyrazin-2-ylmethyl-1H-indol-6-ylmethoxy)-phenyl]-propanoic acid]
8.00	CC#C[C@@H](CC(=O)O)c1ccc(OCc2ccc3ccn(Cc4ccccc4)c3n2)cc1 [Example 90, (S)-3-[4-(1-benzyl-1H-pyrrolo[2,3-b]pyridin-6-ylmethoxy)-phenyl]-hex-4-ynoic acid]
7.52	O=C(O)C[C@@H](c1ccc(OCc2ccc3ccn(Cc4ccccc4)c3n2)cc1)c1ccon1 [Example 91, (S)-3-[4-(1-benzyl-1H-pyrrolo[2,3-b]pyridin-6-ylmethoxy)-phenyl]-3-isoxazol-3-yl-propanoic acid]
7.30 to 9.00	Cc1cnc(Cn2ccc3ccc(COc4ccc([C@H](CC(=O)O)c5ccon5)cc4)c(C)c32)cn1 [Example 92, (S)-3-isoxazol-3-yl-3-{4-[7-methyl-1-(5-methyl-pyrazin-2-ylmethyl)-1H-indol-6-ylmethoxy]-phenyl}-propanoic acid]
7.22	O=C(O)C[C@@H](c1ccc(OCc2cccc3c2cnn3Cc2ccccc2)cc1)c1ccon1 [Example 94, (S)-3-[4-(1-benzyl-1H-indazol-4-ylmethoxy)-phenyl]-3-isoxazol-3-yl-propanoic acid]
7.52	CC(C)n1ncc2ccc(COc3ccc([C@H](CC(=O)O)c4ccon4)cc3)cc21 [Example 96, (S)-3-[4-(1-isopropyl-1H-indazol-6-ylmethoxy)-phenyl]-3-isoxazol-3-yl-propanoic acid]
